Reference: US20260335468A1, “MOLECULAR RADIOAFTERGLOW PROBES FOR CANCER RADIODYNAMIC THERANOSTICS” (NANYANG TECHNOLOGICAL UNIVERSITY, priority 2023, published 2026)

How the values were obtained:
[1] = ^1O2 generation upon X-ray irradiation (ESR, TEMP trap); format: physicochemical; details: for ^1O2 generation / radiodynamic activity: X-ray irradiation, ESR
Method: To study ^1O2 generation, a mixture of DPAS or IDPAS (100 M) and TEMP (10 mM) in PBS (0.01 M, pH 7.4, 50% DMSO) was irradiated by X-rays at 2 Gy (100 mGy s^−1 for 20 s) or 5 mGy (250 μGy s^−1 for 20 s). The ESR signals of the mixture were recorded with a Bruker A300 instrument. The ESR signal of the free radical 2,2,6,6-tetramethyl-1-piperidinyloxyl (g=2.0060) was generated by the reaction of ^1O2 with TEMP. The ^1O2 quencher NaN3 (1 mM) was added to validate the afterglow mechanism of IDPASu. Additionally, other commercially available radio sensitizers (such as acridine orange, hematoporphyrin and verteporfin) were measured and compared. The procedure of block depths was similar to that of the tissue penetration depth study and the ^1O2 generation for different depth tissues was measured. The ESR signal changes of MRAP in the absence or presence of CatB were measured in a similar way. The ESR signals of 2,2,6,6-tetramethyl-1-piperidinyloxyl from the reaction of ^1O2 with TEMP were plotted as a function of the concentration of ^1O2, which was generated by the addition of NaOCl to H2O2. This generated the standard curve between the ESR intensity and ^1O2 concentration.

[2] = Radio afterglow spectra, intensity and half-life of luminophores in PBS after X-ray; format: physicochemical; details: for radio afterglow brightness / intensity: X-ray irradiation; for radio afterglow intensity increase versus iodine-free counterpart: 100 μM, PBS pH 7.4, 50% DMSO, X-ray 5 mGy
Method: The optical properties of DPAs and IDPAs were investigated in an aqueous solution (FIGS. 2 and 3). […] Their half-lives ranged from 9.2 to 196.8 min (FIG. 4e).
DPAs or IDPAs (100 μM) in 0.01 M PBS (pH 7.4, 50% DMSO) were irradiated by X-rays at 250 μGy s^−1 for 20 s (total, 5 mGy) under the specific setup parameter of 10 kV and 75 μA. Then, the radio afterglow signal was collected with an IVIS imaging system under the bioluminescence mode with an open filter and an acquisition time of 60 s. Finally, the radio afterglow intensities were quantified by a region-of-interest analysis using Living Image 4.3 software. In addition, the radio afterglow spectra of the candidates were acquired under the same test conditions with specific emission filters, and time courses of the signal were recorded as a function of time.

Compound | ^1O2 generation versus that of IDPAs ([1]; X-ray 5 mGy) | ^1O2 generation / radiodynamic activity [1] | radio afterglow brightness / intensity [2] | radio afterglow intensity increase versus iodine-free counterpart [2]
COC(=C1C2CC3CC(C2)CC1C3)c1c(/C=C/C2=CC(=C(C#N)C#N)c3ccccc3S2)cc(I)c(O)c1I [DIDPAS] | ~ 1.2 fold | slightly increase | extremely low | –
COC(=C1C2CC3CC(C2)CC1C3)c1cc(O)ccc1/C=C/C1=CC(=C(C#N)C#N)c2ccccc2S1 [DPASu, DBTP-phenoxy-adamantylidene] | – | generation of ^1O2 | – | –
COC(=C1C2CC3CC(C2)CC1C3)c1cc(O)c(I)cc1/C=C/C1=CC(=C(C#N)C#N)c2ccccc2[Se]1 [IDPASe] | – | – | – | 6.65 fold
COC(=C1C2CC3CC(C2)CC1C3)c1c(/C=C/C2=CC(=C(C#N)C#N)c3ccccc3O2)cc(I)c(O)c1I [DIDPAO] | – | slightly increase | extremely low | –
COC(=C1C2CC3CC(C2)CC1C3)c1cc(O)c(I)cc1/C=C/C1=CC(=C(C#N)C#N)c2ccccc2O1 [IDPAO] | – | – | – | ~ 1.62 fold
